Drawing on patent US20070249620A1, “Urea Derivative” (priority 2004, published 2007), this text covers melting point and inhibition for 23 compounds.

The target of one series is T1, mouse DGAT1 (Mus musculus, UniProt Q9Z2A7).
T1 construct: made in house; host or cells: insect cells (High Five, Sf9, Sf21, etc.), baculovirus expression system (Invitrogen)
T1 sequence (Q9Z2A7 1-498): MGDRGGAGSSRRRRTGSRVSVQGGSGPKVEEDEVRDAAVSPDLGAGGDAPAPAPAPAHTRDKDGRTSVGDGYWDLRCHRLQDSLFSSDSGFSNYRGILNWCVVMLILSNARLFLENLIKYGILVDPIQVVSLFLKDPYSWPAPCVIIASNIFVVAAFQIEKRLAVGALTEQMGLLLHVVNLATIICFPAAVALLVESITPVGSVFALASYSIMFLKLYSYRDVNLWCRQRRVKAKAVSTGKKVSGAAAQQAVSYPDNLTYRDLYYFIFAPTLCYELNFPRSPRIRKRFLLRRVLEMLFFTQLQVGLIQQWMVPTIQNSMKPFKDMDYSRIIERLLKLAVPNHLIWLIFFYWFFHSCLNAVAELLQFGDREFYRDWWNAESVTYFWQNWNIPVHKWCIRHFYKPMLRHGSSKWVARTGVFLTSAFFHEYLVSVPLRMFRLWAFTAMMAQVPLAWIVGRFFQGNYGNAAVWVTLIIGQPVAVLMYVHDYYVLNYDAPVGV
Nature of the series: DGAT1 inhibitory effect test (microsome fraction, [14C]-oleoyl-CoA, triglyceride radioactivity by TLC). To be noted: 0.5 h; concentration of the test compound 0.1 μg/ml; mouse DGAT1 microsomes, 23° C., 30 minutes; read-out: Inhibitory ratio. Format: biochemical. The method, boiled down: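 Baculovirus-expressed mouse DGAT1 insect-cell microsomes (10 μg) were incubated 30 min at 23 °C, pH 8.0, with 0.5 mM 1,2-dioleoyl-sn-glycerol, 30 μM [14C]-oleoyl-CoA and 0.5% Triton X-100. [14C]-triglyceride was quantified after heptane extraction and TLC. Percent inhibition was taken against vehicle control, with 0-min background subtracted.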

In turn, `CCOc1ccccc1NC(=O)Nc1ccc(N2CCN(C(=O)Nc3c(C)cccc3Cl)CC2)nc1` [Example 141, 4-{5-[3-(2-ethoxy-phenyl)-ureido]-pyridin-2-yl}-piperazine-1-carboxylic acid (2-chloro-6-methyl-phenyl)-amide] came in with a melting point of 185 to 186 °C. Also, the inhibition at 0.1 µg/mL at mouse DGAT1 is not below 50%.

`CCOc1ccccc1NC(=O)Nc1ccc(N2CCN(C(=O)Nc3c(C)cccc3C)CC2)nc1` [Example 142, 4-{5-[3-(2-ethoxy-phenyl)-ureido]-pyridin-2-yl}-piperazine-1-carboxylic acid (2,6-dimethyl-phenyl)-amide] returned a melting point of 188 to 190 °C. In addition, on mouse DGAT1, the inhibition at 0.1 µg/mL is not below 50%.

Regarding `CCOc1ccccc1NC(=O)Nc1ccc(N2CCN(C(=O)Nc3c(F)cccc3C(F)(F)F)CC2)nc1` [Example 143, 4-{5-[3-(2-ethoxy-phenyl)-ureido]-pyridin-2-yl}-piperazine-1-carboxylic acid (2-fluoro-6-trifluoromethyl-phenyl)-amide], the melting point fell in the range of 177 to 179 °C. The inhibition at 0.1 µg/mL at mouse DGAT1 is not below 50%.

Turning to `CCOc1ccccc1NC(=O)Nc1ccc(N2CCN(C(=O)Nc3c(Cl)cccc3Cl)CC2)nc1` [Example 144, 4-{5-[3-(2-ethoxy-phenyl)-ureido]-pyridin-2-yl}-piperazine-1-carboxylic acid (2,6-dichloro-phenyl)-amide], the melting point fell in the range of 170 to 172 °C. Further, the inhibition at 0.1 µg/mL at mouse DGAT1 was not below 50%.

Compound `CCOc1ccccc1NC(=O)Nc1ccc(N2CCN(C(=O)Nc3ccc(OC)cc3C)CC2)nc1` [Example 145, 4-{5-[3-(2-ethoxy-phenyl)-ureido]-pyridin-2-yl}-piperazine-1-carboxylic acid (4-methoxy-2-methyl-phenyl)-amide] gave a melting point of 166 to 168 °C. The inhibition at 0.1 µg/mL on mouse DGAT1 is not below 50%.

With `CCOc1ccccc1NC(=O)Nc1ccc(N2CCN(C(=O)Nc3ccc(C)cc3Cl)CC2)nc1` [Example 146, 4-{5-[3-(2-ethoxy-phenyl)-ureido]-pyridin-2-yl}-piperazine-1-carboxylic acid (2-chloro-4-methyl-phenyl)-amide], the melting point was 136 to 137 °C. Also, the inhibition at 0.1 µg/mL at mouse DGAT1 was not below 50%.

`COc1ccc(C)cc1NC(=O)Nc1ccc(N2CCN(C(=O)Nc3ccc(C)cc3Cl)CC2)nc1` [Example 147, 4-{5-[3-(2-methoxy-5-methyl-phenyl)-ureido]-pyridin-2-yl}-piperazine-1-carboxylic acid (2-chloro-4-methyl-phenyl)-amide] had a melting point of 214 to 215 °C. Moreover, the inhibition at 0.1 µg/mL at mouse DGAT1 is not below 50%.

Turning to `COc1ccc(F)cc1NC(=O)Nc1ccc(N2CCN(C(=O)Nc3c(C)cccc3Cl)CC2)nc1` [Example 148, 4-{5-[3-(5-fluoro-2-methoxy-phenyl)-ureido]-pyridin-2-yl}-piperazine-1-carboxylic acid (2-chloro-6-methyl-phenyl)-amide], the melting point fell in the range of 227 to 228 °C. The inhibition at 0.1 µg/mL on mouse DGAT1 was not below 50%.

With `COc1ccc(F)cc1NC(=O)Nc1ccc(N2CCN(C(=O)Nc3c(C)cccc3C)CC2)nc1` [Example 149, 4-{5-[3-(5-fluoro-2-methoxy-phenyl)-ureido]-pyridin-2-yl}-piperazine-1-carboxylic acid (2,6-dimethyl-phenyl)-amide], the melting point lay within 226 to 228 °C. Further, the inhibition at 0.1 µg/mL on mouse DGAT1 was not below 50%.

For `COc1ccc(F)cc1NC(=O)Nc1ccc(N2CCN(C(=O)Nc3c(Cl)cccc3Cl)CC2)nc1` [Example 151, 4-{5-[3-(5-fluoro-2-methoxy-phenyl)-ureido]-pyridin-2-yl}-piperazine-1-carboxylic acid (2,6-dichloro-phenyl)-amide], the melting point is 228 °C. The inhibition at 0.1 µg/mL on mouse DGAT1 was not below 50%.

In turn, `COc1ccc(C)cc1NC(=O)Nc1ccc(N2CCN(C(=O)Nc3c(F)cccc3F)CC2)nc1` [Example 152, 4-{5-[3-(2-methoxy-5-methyl-phenyl)-ureido]-pyridin-2-yl}-piperazine-1-carboxylic acid (2,6-difluoro-phenyl)-amide] registered a melting point of 237 to 239 °C. Further, on mouse DGAT1, the inhibition at 0.1 µg/mL was not below 50%.

In turn, `COc1ccc(NC(=O)N2CCN(c3ccc(NC(=O)Nc4cc(F)ccc4OC)cn3)CC2)c(C)c1` [Example 153, 4-{5-[3-(5-fluoro-2-methoxy-phenyl)-ureido]-pyridin-2-yl}-piperazine-1-carboxylic acid (4-methoxy-2-methyl-phenyl)-amide] came in with a melting point of 212 to 214 °C. Moreover, the inhibition at 0.1 µg/mL at mouse DGAT1 is not below 50%.

Turning to `COc1ccc(F)cc1NC(=O)Nc1ccc(N2CCN(C(=O)Nc3ccc(C)cc3Cl)CC2)nc1` [Example 154, 4-{5-[3-(5-fluoro-2-methoxy-phenyl)-ureido]-pyridin-2-yl}-piperazine-1-carboxylic acid (2-chloro-4-methyl-phenyl)-amide], the melting point was 217 to 218 °C. Also, the inhibition at 0.1 µg/mL on mouse DGAT1 is not below 50%.

Regarding `COc1ccc(C)cc1NC(=O)Nc1ccc(N2CCN(C(=O)Nc3ccc(F)cc3C(F)(F)F)CC2)nc1` [Example 155, 4-{5-[3-(2-methoxy-5-methyl-phenyl)-ureido]-pyridin-2-yl}-piperazine-1-carboxylic acid (4-fluoro-2-trifluoromethyl-phenyl)-amide], the melting point lay in the range of 186 to 187 °C. For the same compound, on mouse DGAT1, the inhibition at 0.1 µg/mL was not below 50%.

The compound `Cc1cccc(Cl)c1NC(=O)N1CCN(c2ccc(NC(=O)Nc3ccc(N(C)C)cc3)cc2)CC1` [Example 156, 4-{4-[3-(4-dimethylamino-phenyl)-ureido]-phenyl}-piperazine-1-carboxylic acid (2-chloro-6-methyl-phenyl)-amide] gave a melting point of 214 to 217 °C. In addition, the inhibition at 0.1 µg/mL at mouse DGAT1 was not below 50%.

`CCC(C)c1ccccc1NC(=O)Nc1ccc(N2CCN(C(=O)Nc3c(C)cccc3Cl)CC2)cc1` (stereo not shown) [Example 157, 4-{4-[3-(2-sec-butyl-phenyl)-ureido]-phenyl}-piperazine-1-carboxylic acid (2-chloro-6-methyl-phenyl)-amide] had a melting point of 232 to 234 °C. In addition, the inhibition at 0.1 µg/mL on mouse DGAT1 is not below 50%.

With `Cc1cccc(Cl)c1NC(=O)N1CCN(c2ccc(NC(=O)Nc3ccc(C(C)C)cc3)cc2)CC1` [Example 158, 4-{4-[3-(4-isopropyl-phenyl)-ureido]-phenyl}-piperazine-1-carboxylic acid (2-chloro-6-methyl-phenyl)-amide], the melting point lay within 278 to 280 °C. Further, the inhibition at 0.1 µg/mL at mouse DGAT1 was not below 50%.

With `CCOc1ccc(NC(=O)Nc2ccc(N3CCN(C(=O)Nc4c(C)cccc4Cl)CC3)cc2)cc1` [Example 159, 4-{4-[3-(4-ethoxy-phenyl)-ureido]-phenyl}-piperazine-1-carboxylic acid (2-chloro-6-methyl-phenyl)-amide], the melting point fell in the range of 229 to 230 °C. For the same compound, the inhibition at 0.1 µg/mL at mouse DGAT1 was not below 50%.

On to `CCc1ccc(NC(=O)Nc2ccc(N3CCN(C(=O)Nc4c(C)cccc4Cl)CC3)cc2)cc1` [Example 160, 4-{4-[3-(4-ethyl-phenyl)-ureido]-phenyl}-piperazine-1-carboxylic acid (2-chloro-6-methyl-phenyl)-amide], for which the melting point fell in the range of 239 to 241 °C. In addition, the inhibition at 0.1 µg/mL on mouse DGAT1 is not below 50%.

`CCC(C)c1ccc(NC(=O)Nc2ccc(N3CCN(C(=O)Nc4c(C)cccc4Cl)CC3)cc2)cc1` (stereo not shown) [Example 161, 4-{4-[3-(4-sec-butyl-phenyl)-ureido]-phenyl}-piperazine-1-carboxylic acid (2-chloro-6-methyl-phenyl)-amide] yielded a melting point of 259 to 261 °C. The inhibition at 0.1 µg/mL on mouse DGAT1 was not below 50%.

Consider `CCCCOc1ccc(NC(=O)Nc2ccc(N3CCN(C(=O)Nc4c(C)cccc4Cl)CC3)cc2)cc1` [Example 162, 4-{4-[3-(4-butoxy-phenyl)-ureido]-phenyl}-piperazine-1-carboxylic acid (2-chloro-6-methyl-phenyl)-amide], for which the melting point lay within 218 to 219 °C. Further, the inhibition at 0.1 µg/mL on mouse DGAT1 is not below 50%.

Compound `Cc1cccc(Cl)c1NC(=O)N1CCN(c2ccc(NC(=O)Nc3cc(C(F)(F)F)ccc3F)cc2)CC1` [Example 163, 4-{4-[3-(2-fluoro-5-trifluoromethyl-phenyl)-ureido]-phenyl}-piperazine-1-carboxylic acid (2-chloro-6-methyl-phenyl)-amide] returned a melting point of 228 to 230 °C. Also, at mouse DGAT1, the inhibition at 0.1 µg/mL was not below 50%.

Compound `Cc1cccc(Cl)c1NC(=O)N1CCN(c2ccc(NC(=O)Nc3cc(C(F)(F)F)ccc3Cl)cc2)CC1` [Example 164, 4-{4-[3-(2-chloro-5-trifluoromethyl-phenyl)-ureido]-phenyl}-piperazine-1-carboxylic acid (2-chloro-6-methyl-phenyl)-amide] displayed a melting point of 249 to 251 °C. Further, on mouse DGAT1, the inhibition at 0.1 µg/mL is not below 50%.
